Experimental data: US12540141B2, “Spiropyrrolidine derived antiviral agents” (priority 2020, dated 2026)

Target: SARS-CoV-2 3CL-protease (Severe acute respiratory syndrome coronavirus 2, UniProt P0DTD1)
Assay: SARS-CoV-2 3C-Like (3CL) Protease Fluorescence Assay (FRET)
Type: biochemical
Details: SARS-CoV-2 3CL-protease 10 nM, 30 min preincubation at RT, substrate 40 μM

SMILES | IC50 [µM]
CN(C(=O)c1cn(C2CCC2)nn1)[C@@H](Cc1ccccc1)C(=O)N1C[C@]2(C[C@H]1C#N)C(=O)Nc1ccccc12 [Example 358] | < 0.1
CC(C)C[C@@H](C(=O)N1C[C@]2(C[C@H]1C#N)C(=O)Nc1ccc(Br)cc12)N(C)C(=O)OCc1ccccc1 [Example 517, benzyl ((S)-1-((3R,5′S)-5-bromo-5′-cyano-2-oxospiro[indoline-3,3′-pyrrolidin]-1′-yl)-4-methyl-1-oxopentan-2-yl)(methyl)carbamate] | < 0.1
CC(C)(C)C[C@H](NC(=O)c1cn(C2CC2)nn1)C(=O)N1C[C@]2(C[C@H]1C#N)C(=O)Nc1ccccc12 [Example 141] | < 0.1
CC(C)C[C@@H](C(=O)N1C[C@]2(C[C@H]1C#N)C(=O)Nc1ccccc12)N(C)C(=O)/C=C/c1ccccc1 [Example 228] | < 0.1
CC(C)C[C@@H](C(=O)N1C[C@]2(C[C@H]1C#N)C(=O)Nc1ccccc12)N(C)C(=O)c1cnc2ccccc2n1 [Example 298] | 0.1 to 1
CC(C)C[C@@H](C(=O)N1C[C@]2(C[C@H]1C#N)C(=O)Nc1ccccc12)N(C)C(=O)c1cn(-c2ccccc2)nn1 [Example 338] | < 0.1
CCCOC[C@@H](C(=O)N1C[C@]2(C[C@H]1C#N)C(=O)Nc1ccccc12)N(C)C(=O)c1cc2c(F)cc(F)cc2[nH]1 [Example 413, N—((S)-1-((3R,5′S)-5′-cyano-2-oxospiro[indoline-3,3′-pyrrolidin]-1′-yl)-1-oxo-3-propoxypropan-2-yl)-4,6-difluoro-N-methyl-1H-indole-2-carboxamide] | < 0.1
[2H]C([2H])([2H])N(C(=O)c1nc(-c2ccccc2)c[nH]1)[C@@H](CC(C)(C)C)C(=O)N1C[C@]2(C[C@H]1C#N)C(=O)Nc1ccccc12 [Example 376] | < 0.1
CC(C)C[C@@H](C(=O)N1C[C@]2(C[C@H]1C#N)C(=O)Nc1ccccc12)N(C)C(=O)c1ccc2nc(N)sc2c1 [Example 225] | > 1
CN(C(=O)[C@H](O)c1ccccc1Cl)[C@@H](CC1CC1)C(=O)N1C[C@]2(C[C@H]1C#N)C(=O)Nc1ccccc12 [Example 426] | < 0.1
CC(C)C[C@@H](C(=O)N1C[C@]2(C[C@H]1C#N)C(=O)Nc1ccccc12)N(C)C(=O)c1cc2ccc(Br)cc2cn1 [Example 236] | 0.1 to 1
[2H]C([2H])([2H])N(C(=O)c1cnn(C(C)(C)C)c1C(F)(F)F)[C@@H](CC1CC1)C(=O)N1C[C@]2(C[C@H]1C#N)C(=O)Nc1ccccc12 [Example 400] | < 0.1
[2H]C([2H])([2H])N(C(=O)c1cn(CC(F)(F)F)nn1)[C@@H](CC(C)(C)C)C(=O)N1C[C@]2(C[C@H]1C#N)C(=O)Nc1ccccc12 [Example 380] | < 0.1
CN(C(=O)c1cc2cnccc2[nH]1)[C@@H](CC1CC1)C(=O)N1C[C@]2(C[C@H]1C#N)C(=O)Nc1ccc(Cl)cc12 [Example 457] | < 0.1
CC(C)C[C@@H](C(=O)N1C[C@]2(C[C@H]1C#N)C(=O)Nc1ccccc12)N(C)C(=O)c1cccc2ncc(F)cc12 [Example 304] | < 0.1
CC(C)C[C@@H](C(=O)N1C[C@]2(C[C@H]1C#N)C(=O)Nc1ccccc12)N(C)C(=O)c1cccc2ccccc12 [Example 241] | < 0.1
CC(C)C[C@@H](C(=O)N1C[C@]2(C[C@H]1C#N)C(=O)Nc1ccccc12)N(C)C(=O)c1cncc2ccccc12 [Example 295] | < 0.1
CC(C)C[C@@H](C(=O)N1C[C@]2(C[C@H]1C#N)C(=O)Nc1ccccc12)N(C)C(=O)[C@H]1CCN(C(=O)OC(C)(C)C)C1 [Example 344] | 0.1 to 1
[2H]C([2H])([2H])N(C(=O)c1cn(CC(F)(F)F)nc1C1CC1)[C@@H](CC1CC1)C(=O)N1C[C@]2(C[C@H]1C#N)C(=O)Nc1ccccc12 [Example 401] | < 0.1
N#C[C@@H]1C[C@@]2(CN1C(=O)[C@H](Cc1ccc(F)cc1)NC(=O)c1cc3c(F)cc(F)cc3[nH]1)C(=O)Nc1ccc(Cl)cc12 [Example 452] | < 0.1
CN(C(=O)[C@H](O)c1ccccc1F)[C@@H](CC1CC1)C(=O)N1C[C@]2(C[C@H]1C#N)C(=O)Nc1ccccc12 [Example 425] | < 0.1
N#C[C@@H]1C[C@@]2(CN1C(=O)[C@H](CN1CCCC1=O)NC(=O)OCc1ccccc1)C(=O)Nc1ccccc12 [Example 548, benzyl ((S)-1-((3R,5′S)-5′-cyano-2-oxospiro[indoline-3,3′-pyrrolidin]-1′-yl)-1-oxo-3-(2-oxopyrrolidin-1-yl)propan-2-yl)carbamate] | 0.1 to 1
CC(C)C[C@@H](C(=O)N1C[C@]2(C[C@H]1C#N)C(=O)Nc1ccccc12)N(C)C(=O)c1ccnc2cccc(F)c12 [Example 306] | < 0.1
CC(C)C[C@@H](C(=O)N1C[C@]2(C[C@H]1C#N)C(=O)Nc1ccccc12)N(C)C(=O)c1c(Cl)ccc(Cl)c1F [Example 169] | < 0.1
CC(C)C[C@@H](C(=O)N1C[C@]2(C[C@H]1C#N)C(=O)Nc1ccccc12)N(C)C(=O)c1ccc2nn(C3CC3)cc2c1 [Example 339] | 0.1 to 1
Cc1cc(F)c(C(=O)N(C)[C@@H](CC(C)C)C(=O)N2C[C@]3(C[C@H]2C#N)C(=O)Nc2ccccc23)cc1-c1cnn(C2CC2)c1 [Example 342] | < 0.1
CC(C)C[C@H](NC(=O)c1cc2c(F)cccc2[nH]1)C(=O)N1C[C@]2(C[C@H]1C#N)C(=O)Nc1c(Cl)cccc12 [Example 533] | < 0.1
CN(C(=O)c1cnc(C(C)(C)C)[nH]1)[C@@H](CC1CC1)C(=O)N1C[C@]2(C[C@H]1C#N)C(=O)Nc1ccccc12 [Example 410] | < 0.1

SMILES | IC50 [µM]
CC(C)C[C@@H](C(=O)N1C[C@]2(C[C@H]1C(=O)CCl)C(=O)Nc1ccccc12)N(C)C(=O)c1cc2c(F)cc(F)c(F)c2[nH]1 [Example 159] | > 1
C[C@@H]1COC[C@H](C)N1CCC(=O)N(C)[C@@H](CC(C)(C)F)C(=O)N1C[C@]2(C[C@H]1C#N)C(=O)Nc1ccccc12 [Example 546] | < 0.1
CC(C)(C)C[C@H](NC(=O)c1ccc2ncc(C3CC3)cc2c1)C(=O)N1C[C@]2(C[C@H]1C#N)C(=O)Nc1ccccc12 [Example 136] | < 0.1
C[C@@H](OC(=O)N[C@@H](CC(C)(C)C)C(=O)N1C[C@]2(C[C@H]1C#N)C(=O)Nc1ccc(Cl)cc12)c1ccc(F)cc1 [Example 495] | < 0.1
CN(C(=O)C(F)(F)F)[C@@H](CC(C)(C)C)C(=O)N1C[C@]2(C[C@H]1C#N)C(=O)Nc1ccccc12 [Example 374] | 0.1 to 1
CC(C)(C)C[C@H](NC(=O)c1cn(-c2ccc(Cl)cc2)nn1)C(=O)N1C[C@]2(C[C@H]1C#N)C(=O)Nc1ccccc12 [Example 140] | 0.1 to 1
CN(C(=O)Cc1ccncc1)[C@@H](CC(C)(C)F)C(=O)N1C[C@]2(C[C@H]1C#N)C(=O)Nc1ccc(Cl)cc12 [Example 477] | < 0.1
CC(C)C[C@@H](C(=O)N1C[C@]2(C[C@H]1C#N)C(=O)Nc1ccccc12)N(C)C(=O)c1cccc(-c2ccc(C#N)cc2)c1 [Example 265] | 0.1 to 1
CC(C)C[C@@H](C(=O)N1C[C@]2(C[C@H]1C#N)C(=O)Nc1ccccc12)N(C)C(=O)c1nc2c(F)cc(F)cc2[nH]1 [Example 269] | < 0.1
CC(C)C[C@@H](C(=O)N1C[C@]2(C[C@H]1C#N)C(=O)Nc1ccccc12)N(C)C(=O)c1cc(Cl)c2[nH]c(C3CC3)nc2c1 [Example 256] | < 0.1
Cc1ccc2cc(C(=O)N(C)[C@@H](CC3CC3)C(=O)N3C[C@]4(C[C@H]3C#N)C(=O)Nc3ccc(Cl)cc34)[nH]c2n1 [Example 462] | < 0.1
CC(C)C[C@@H](C(=O)N1C[C@]2(C[C@H]1C#N)C(=O)Nc1ccccc12)N(C)C(=O)c1ccc(F)c(C(F)(F)F)c1 [Example 177] | < 0.1
CC(C)C[C@@H](C(=O)N1C[C@]2(C[C@H]1C#N)C(=O)Nc1ccccc12)N(C)C(=O)c1ccc(C#N)c(Cl)c1 [Example 165] | 0.1 to 1
CC(C)C[C@@H](C(=O)N1C[C@]2(C[C@H]1C#N)C(=O)Nc1ccccc12)N(C)C(=O)c1cc2cc(F)c(F)c(F)c2[nH]1 [Example 333] | < 0.1
CC(C)C[C@@H](C(=O)N1C[C@]2(C[C@H]1C#N)C(=O)Nc1ccccc12)N(C)C(=O)c1n[nH]c(-c2ccccc2)n1 [Example 288] | 0.1 to 1
CC(C)C[C@H](NC(=O)c1ccc(-c2ccccc2)[nH]1)C(=O)N1C[C@]2(C[C@H]1C#N)C(=O)Nc1ccccc12 [Example 151] | > 1
CC(C)C[C@@H](C(=O)N1C[C@]2(C[C@H]1C#N)C(=O)Nc1ccccc12)N(C)C(=O)c1cn(-c2cccc(Cl)c2)nn1 [Example 286] | < 0.1
CN(C(=O)CN1CCOCC1)[C@@H](CC(C)(C)F)C(=O)N1C[C@]2(C[C@H]1C#N)C(=O)Nc1ccccc12 [Example 536] | 0.1 to 1
CC(C)(C)C[C@H](NC(=O)OC(C)(C)c1ccc(F)cc1)C(=O)N1C[C@]2(C[C@H]1C#N)C(=O)Nc1ccc(Cl)cc12 [Example 496] | > 1
CC(C)C[C@@H](C(=O)N1C[C@]2(C[C@H]1C#N)C(=O)Nc1ccccc12)N(C)C(=O)c1cc(Cl)c2ncc(C(F)(F)F)cc2c1 [Example 240] | < 0.1
CC(C)(C)C[C@H](NC(=O)c1cc(OC(F)F)c2ncccc2c1)C(=O)N1C[C@]2(C[C@H]1C#N)C(=O)Nc1ccccc12 [Example 139] | < 0.1
[2H]C([2H])([2H])N(C(=O)c1cnn2cc(Cl)ccc12)[C@@H](CCCC)C(=O)N1C[C@]2(C[C@H]1C#N)C(=O)Nc1ccccc12 [Example 398] | < 0.1
CC(C)C[C@@H](C(=O)N1C[C@]2(C[C@H]1C(O)S(=O)(=O)O)C(=O)Nc1ccccc12)N(C)C(=O)c1cc2c(F)cc(F)cc2[nH]1 (stereo partly shown) [Example 153] | < 0.1
CC(C)C[C@@H](C(=O)N1C[C@]2(C[C@H]1C#N)C(=O)Nc1ccccc12)N(C)C(=O)c1nc2cc(F)ccc2[nH]1 [Example 250] | < 0.1
CN(C(=O)c1cc2ncccc2[nH]1)[C@@H](CC1CC1)C(=O)N1C[C@]2(C[C@H]1C#N)C(=O)Nc1ccc(Cl)cc12 [Example 456] | < 0.1
CC(C)N(C(=O)OC(C)(C)C)[C@@H](Cc1ccccc1)C(=O)N1C[C@]2(C[C@H]1C#N)C(=O)Nc1ccccc12 [Example 161] | > 1
CC(C)C[C@@H](C(=O)N1C[C@]2(C[C@H]1C#N)C(=O)Nc1ccccc12)N(C)C(=O)c1cc2ccccc2cn1 [Example 212] | < 0.1
